Among the test systems are A498; SK-MEL-2; TK-10; CCRF-CEM; OVCAR-8; M14; OVCAR-5; SK-MEL-28; HOP-92; SR; SW-620; SF-539; HCT-116; KM12; A549; SNB-19; NCI-H23; RPMI-8226.
Holding throughout (test): DTP human tumour cell line panel, 48 h

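The compound was tested at five concentrations on cells cultured in 96-well plates, with a 48-hour exposure period. At the GI50, growth is halved.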 Activity calls are given as the source filed them. Cut-off read from the data, not from the text of the source: active = GI50 up to about 1.1 µM and inactive = higher.

Eleven compounds from ChEMBL document CHEMBL1201862, “PubChem BioAssay data set” (2004) can be followed below.

Broadly, the GI50 is the concentration that inhibits growth by half.

Consider `NC(=S)N1N=C2c3ccccc3CC[C@H]2[C@@H]1c1ccc(Cl)cc1`, for which the GI50 in the assay on A498 is 35.5 µM (inactive); in the assay with SK-MEL-2 it was 22.3 µM (inactive); in the assay with TK-10, 45.7 µM (inactive); in the assay on CCRF-CEM it was 41.3 µM (inactive); in the assay with OVCAR-8 it was 31.6 µM (inactive); with M14, 28.2 µM (inactive). Moreover, the GI50 in the assay on OVCAR-5 was 47.6 µM (inactive); in the assay on SK-MEL-28 it was 40.8 µM (inactive); in the assay with HOP-92, 22.3 µM (inactive); in the assay with SR it was 26.2 µM (inactive); in the assay with SW-620, 38.4 µM (inactive); with SF-539, 41.7 µM (inactive). Moreover, the GI50 in the assay on HCT-116 was 15.5 µM (inactive); with KM12 it was 29 µM (inactive); with A549, 30 µM (inactive); in the assay on SNB-19 it was 47.4 µM (inactive); with NCI-H23 it was 24.4 µM (inactive); with RPMI-8226 it was 18.6 µM (inactive).

Consider `CCCOC(=O)C1C(c2ccc(OC)cc2)NC(c2ccc(OC)cc2)C(C(=O)OCCC)S1(=O)=O` (centres undefined), for which the GI50 was 85.3 µM (inactive) in the assay with A498; > 10 µM (inactive) with SK-MEL-2; > 10 µM (inactive) in the assay with TK-10; > 10 µM (inactive) in the assay on CCRF-CEM; > 10 µM (inactive) in the assay with OVCAR-8; > 10 µM (inactive) with M14. In addition, the GI50 in the assay with OVCAR-5 is > 10 µM (inactive); with SK-MEL-28, > 10 µM (inactive); in the assay on HOP-92 it was > 10 µM (inactive); with SR it was > 100 µM (inactive); with SW-620, > 10 µM (inactive); with SF-539, > 10 µM (inactive). The GI50 with HCT-116, in the assay with KM12, with A549, with SNB-19, in the assay on NCI-H23 and in the assay on RPMI-8226 was > 10 µM (inactive) throughout.

Consider `Cc1cc(C)c(N)c(C)c1N`, for which the GI50 with A498, with SK-MEL-2, in the assay with TK-10, with CCRF-CEM, in the assay on OVCAR-8 and in the assay with M14 was > 100 µM (inactive) each time. Besides, the GI50 in the assay with OVCAR-5, in the assay on SK-MEL-28, in the assay on HOP-92, in the assay with SR, with SW-620 and in the assay with SF-539 was > 100 µM (inactive) in each case. In addition, the GI50 in the assay with HCT-116, with KM12, with A549, with SNB-19, with NCI-H23 and in the assay with RPMI-8226 was > 100 µM (inactive) in each case.

Take `CCCCN[C@H]1C2C3CC4C5CC(C42)C1(C)C53` (some centres undefined): the GI50 with A498, in the assay with SK-MEL-2, in the assay with TK-10, in the assay with CCRF-CEM, in the assay with M14 and with OVCAR-5 was > 100 µM (inactive) each time. The GI50 in the assay on SK-MEL-28, with HOP-92, in the assay with SR, in the assay on SW-620, in the assay on SF-539 and in the assay with HCT-116 was > 100 µM (inactive) in each case. The GI50 in the assay with KM12, in the assay with A549, with SNB-19 and with RPMI-8226 was > 100 µM (inactive) throughout.

As to `COc1cc2c(oc(=O)c3c4occc4cc(OC)c23)c2cccc(OCc3ccccc3)c12`, the GI50 with A498 is 34.4 µM (inactive); with SK-MEL-2, > 100 µM (inactive); with TK-10, > 100 µM (inactive); in the assay on CCRF-CEM, > 100 µM (inactive); in the assay on OVCAR-8, > 100 µM (inactive); in the assay with M14, 80.2 µM (inactive). Also, the GI50 is > 100 µM (inactive) in the assay on OVCAR-5; 49.4 µM (inactive) in the assay on SK-MEL-28; > 100 µM (inactive) with HOP-92; > 100 µM (inactive) with SR; > 100 µM (inactive) in the assay on SW-620; > 100 µM (inactive) in the assay with SF-539. In addition, the GI50 with HCT-116, in the assay on KM12, in the assay on A549, with SNB-19, with NCI-H23 and in the assay on RPMI-8226 was > 100 µM (inactive) in each case.

On to `O=C(/C(=C\c1ccccc1)CN1CCOCC1)c1ccc(Br)cc1`, for which the GI50 in the assay on A498 is 6.12 µM (inactive); in the assay on SK-MEL-2, 1.92 µM (inactive); with TK-10 it was 5.37 µM (inactive); in the assay on CCRF-CEM, 0.714 µM (active); with OVCAR-8, 1.61 µM (inactive); in the assay with M14, 1.78 µM (inactive). For the same compound, the GI50 was 3.48 µM (inactive) in the assay on OVCAR-5; 1.76 µM (inactive) with SK-MEL-28; 5.47 µM (inactive) in the assay with HOP-92; 1.16 µM (inactive) in the assay with SR; 1.18 µM (inactive) in the assay on SW-620; 2.12 µM (inactive) with SF-539. For the same compound, the GI50 with HCT-116 is 1.72 µM (inactive); in the assay on KM12, 1.87 µM (inactive); with A549 it was 6.64 µM (inactive); in the assay with SNB-19, 5.79 µM (inactive); in the assay with NCI-H23 it was 3.24 µM (inactive); in the assay with RPMI-8226, 2.43 µM (inactive).

As for `CC(C)c1cccc(C(C)C)c1NC(=O)C(=O)CC(=O)CC(c1ccccc1)c1c(O)oc2ccccc2c1=O` (centres undefined), the GI50 in the assay on A498, in the assay with SK-MEL-2, with TK-10, with CCRF-CEM, in the assay with OVCAR-8 and with M14 was > 100 µM (inactive) in each case. In addition, the GI50 in the assay on OVCAR-5, in the assay with SK-MEL-28, in the assay on HOP-92, in the assay on SR, in the assay on SW-620 and in the assay with SF-539 was > 100 µM (inactive) in each case. Further, the GI50 in the assay with HCT-116, with KM12, with A549, in the assay with SNB-19, in the assay on NCI-H23 and with RPMI-8226 was > 100 µM (inactive) each time.

For `O=c1nc2occc2cn1C1CC(O)C(CO)O1` (centres undefined), the GI50 in the assay with A498, in the assay on TK-10, with CCRF-CEM, in the assay on OVCAR-8, in the assay with M14 and with OVCAR-5 was > 100 µM (inactive) each time. Further, the GI50 in the assay on SK-MEL-28, in the assay with HOP-92, in the assay on SR, with SW-620, with SF-539 and with HCT-116 was > 100 µM (inactive) throughout. For the same compound, the GI50 with KM12, with A549, in the assay with SNB-19, in the assay with NCI-H23 and with RPMI-8226 was > 100 µM (inactive) each time.

As for `O=NN(CCCl)C(=O)N[C@H]1CCCC[C@@H]1Cl`, the GI50 with A498 was > 100 µM (inactive); with SK-MEL-2 it was > 100 µM (inactive); in the assay on TK-10 it was > 100 µM (inactive); in the assay with CCRF-CEM it was 19.6 µM (inactive); in the assay with OVCAR-8, > 100 µM (inactive); in the assay with M14, > 100 µM (inactive). In addition, the GI50 in the assay with SK-MEL-28 is > 100 µM (inactive); in the assay with HOP-92 it was > 100 µM (inactive); in the assay on SR, 3.48 µM (inactive); in the assay with SW-620 it was > 100 µM (inactive); with SF-539 it was 24.9 µM (inactive); in the assay with HCT-116, 50.6 µM (inactive). Besides, the GI50 in the assay on KM12 was > 100 µM (inactive); in the assay with A549, 61.5 µM (inactive); with SNB-19 it was > 100 µM (inactive); in the assay on NCI-H23, 71.6 µM (inactive); with RPMI-8226 it was 43.8 µM (inactive).

In the case of `CC(=O)/C=C1/c2ccccc2N(C(C)=O)C1O` (centres undefined), the GI50 in the assay with A498, in the assay on SK-MEL-2, with CCRF-CEM, in the assay on OVCAR-8, in the assay on M14 and in the assay with SK-MEL-28 was > 100 µM (inactive) throughout. In addition, the GI50 with HOP-92, with SR, with SW-620, with SF-539, with HCT-116 and in the assay with KM12 was > 100 µM (inactive) each time. Also, the GI50 in the assay with A549, in the assay with SNB-19, in the assay on NCI-H23 and in the assay on RPMI-8226 was > 100 µM (inactive) in each case.

For the compound `CCCCCCCCCCCC[N+](CCCCCCCCCCCC)=C1SCCS1`, the GI50 with A498 is 15.7 µM (inactive); in the assay with SK-MEL-2 it was 10.7 µM (inactive); in the assay with TK-10, 15.2 µM (inactive); in the assay with OVCAR-8 it was 2.86 µM (inactive); with M14, 10.5 µM (inactive); in the assay on OVCAR-5, 12.2 µM (inactive). For the same compound, the GI50 with SK-MEL-28 was 11 µM (inactive); with HOP-92 it was 10.8 µM (inactive); in the assay on SR, 3.14 µM (inactive); in the assay on SW-620, 3.29 µM (inactive); with SF-539, 12.5 µM (inactive); in the assay with HCT-116 it was 2.84 µM (inactive). The results for the GI50 in the assay with A549, with NCI-H23 and in the assay with RPMI-8226 were 4.78 µM (inactive), 2.04 µM (inactive) and 1.49 µM (inactive), respectively.
